In patent US11357823B2, “Method for treating cerebral stroke” (Suzhou Yabao Pharmaceutical R&D Co., Ltd., priority 2019, dated 2022):
Like-named read-outs stand apart in the source and are kept apart here.

How the values were obtained:
[1] = test system: acute cerebral ischemia-reperfusion injury in rats; format: in vivo; details: for Scope of cerebral infarction (%): Edaravone 6.0 mg/kg i.v., TTC staining 24 hours after ischemia, Mean ± SEM, model group 42.53 ± 3.27
[2] = test system: primary purified microglia; experiment: LPS-induced over activation of primary purified microglia; format: cell-based; details: LPS-stimulated primary microglia; MTT, cellular immunochemistry
From the text: Microglia plays an important role in the inflammatory process of the central nervous system. The moderate activation of microglia can protect neurons, but the over activated microglia will release a large number of neurotoxic factors, such as […], which will lead to the occurrence of neurodegenerative diseases. Lipopolysaccharide (LPS) can activate microglia, which leads to the over activation of microglia and the damage of neurons. A5 was used to observe the effect of LPS on the over activation of microglia.
During the experiment, LPS was used to stimulate the primary purified microglia as the control group, and A5 protein was added as the experimental group. For the above treatment, MTT method was used to detect cell viability, and cellular immunochemistry method was used to observe cell morphological changes. […] Therefore, A5 protein can be used to inhibit the over activation of immune cells in the brain, such as microglia.

primary cortical neurons = experiment: Oxygen glucose deprivation (OGD) model with primary cortical neurons; format: cell-based; details: 8 hours anoxic culture, A5 in DMEM during 24 hours reoxygenation; CCK-8, flow cytometry
Procedure: Oxygen glucose deprivation (OGD) model is a stimulation model simulating ischemia/hypoxia at the cell level. By changing the cell culture conditions, such as putting the cells into the hypoxia box or into the sugar free medium, the damage of cells under the condition of ischemia/hypoxia is simulated.
OGD model was established with primary cortical neurons. The cells in the culture plate were washed twice with PBS, and then the glucose-free DMEM exchanged with 95% N2+5% CO2 for 30 minutes was added. Then the cells were quickly placed in 37° C., 94% N2+1% O2+5% CO2 hypoxia incubator. After 8 hours of anoxic culture, the corresponding DMEM medium (i.e. DMEM medium containing A5) was added, and then put the plate into a 37° C. 5% CO2 cell incubator for 24 hours of reoxygenation. After 24 hours of culture, morphological changes were observed under inverted microscope, cell survival rate was detected by CCK-8 colorimetry and apoptosis rate was detected by flow cytometry. At the same time, the treatment group of normoxia and normal glucose was set as the control group.

cortical neurons = experiment: NMDA-induced excitotoxic damage on cortical neurons; format: cell-based, SD rats; details: A5 pretreatment then NMDA, compared with NMDA group; trypan blue, TUNEL, immunofluorescence
From the text: Example 5 studied the neuroprotective effect of A5 protein on NMDA (N-methyl-D-aspartate)—induced excitotoxic damage on cortical neurons in rats. NMDA can activate NMDA receptor to increase Ca^2+ content in brain tissue, and NOS is activated in a large amount, which leads to a series of physiological or pathological changes such as the synthesis of a large number of NO, causing damage to neurons in brain. In order to observe the neuroprotective effect of A5 protein on neuronal damage induced by excitotoxicity, the neuron was pretreated with A5 protein.
In the experiment, 17 day embryonic SD rats were selected and the cortical neurons were cultured. Then the neurons were divided into control group, NMDA group and A5 pretreatment group. The neurons in NMDA group were added with NMDA for exposure, and the neurons in A5 pretreatment group were incubated with A5 protein for a period of time, and then added with NMDA. For different treatment groups, trypan blue staining was used to evaluate cell viability, TUNEL staining was used to detect apoptosis cells and immunofluorescence cytochemistry was used to detect neuron morphology.

[3] = test system: co-cultured spontaneously transformed endothelial cell line and purified rat astrocytes; experiment: blood-brain barrier (BBB) model in vitro; format: cell-based; details: BBB model injured after stimulation, then treated with A5 protein
From the text: Blood brain barrier is composed of three components: brain microvascular endothelial cells, astrocytes and basement membrane. The damage of blood-brain barrier is one of the important pathology of stroke.
In the experiment, the blood-brain barrier model was established by co-culturing spontaneously transformed endothelial cell line and purified rat astrocytes. The blood-brain barrier (BBB) model in vitro was injured after stimulation, and then treated with A5 protein.

SD rats = experiment: Toxicity of A5 protein in single intravenous injection in SD rats; format: in vivo
Procedure: In this study, A5 protein was injected intravenously once in SD rats to observe the acute toxicity, severity and main toxic target organs. The dosage was 0 (blank adjuvant), 1000, 3000 and 9000 μg/kg respectively. After the intravenous injection, the animal's posture, gait, reaction, nerve activity, appetite, fur, eyes, ears, mouth, nose, limbs, breath, feces and other clinical symptoms were observed continuously. After that, the recovery from toxic reaction was observed continuously until the 14th day after administration. The animals were dissected and examined for macropathology 15 days after administration. […] The maximum-tolerated dose (MTD) of single intravenous injection of A5 protein was more than […].

cynomolgus monkeys = experiment: Toxicity of A5 protein in single intravenous injection in cynomolgus monkeys; format: in vivo
Procedure: A single intravenous injection of A5 protein was used to observe the acute toxicity and its severity and main toxic target organs in cynomolgus monkeys. The dosage was 0 (blank adjuvant), 500, 1500 and 4500 μg/kg respectively. After the single intravenous injection, observe the clinical symptoms of the animals (including feces, appearance, respiration, nerve reaction, activity status, etc.) until the 15th day after the administration. After administration, the food intake was measured once a day and the body weight was measured once a week. The body temperature, blood pressure and electrocardiograph (ECG) of the animals were measured before and after administration on the day of administration, and again on the 1st, 7th and 15th day of administration. Hematology (including blood coagulation) and serum biochemical examination were carried out for all animals on the 1st, 7th and 15th day after administration, and urine examination was carried out on the 14th day after administration. On the 15th day after administration, the animals were dissected for macropathological examination, and if necessary, for histopathological examination. […] In this experiment, the maximum-tolerated dose (MTD) of cynomolgus monkeys was more than […].

[4] = test system: rat model of focal cerebral ischemia; experiment: rat model of focal cerebral ischemia established by light irradiation; format: in vivo; details: annexin A5 injected into the caudal vein
Procedure: (§1) It was confirmed by the rat model of ischemia-reperfusion that the annexin A5 could reduce the area of cerebral infarction, improve the symptoms of neurological deficits and promote long-term motor recovery in rats. For example, a rat model of focal cerebral ischemia was established by light irradiation, and then annexin A5 was injected into the caudal vein. […] Take another example, the rat model of hemorrhagic stroke was established by intracerebral injection of autologous arterial blood, and then the rats were injected with annexin A5 injection via caudal vein.

[5] = test system: rat model of hemorrhagic stroke; experiment: rat model of hemorrhagic stroke by intracerebral injection of autologous arterial blood; format: in vivo; details: annexin A5 injection via caudal vein
Procedure: as §1

For “A5: recombinant human full-length annexin A5 expressed in E. coli, SEQ ID NO:1, 319 amino acids, N-terminal alanine not acetylated”, the bleeding risk ([1]; experimental group treated with annexin A5, MCAO rats) was “no bleeding risk”, the “over activation of microglia induced by LPS” value [2] was “inhibit the over activation of microglia induced by LPS” and the “damage of neurons caused by oxygen glucose deprivation” value (primary cortical neurons) was “reduce the damage of neurons caused by oxygen glucose deprivation”. The “damage of excitatory toxicity to neurons” value (cortical neurons) was “reduce the damage of excitatory toxicity to neurons”, the “repair of damaged blood-brain barrier” value [3] was “repair the damaged blood-brain barrier” and the “macropathological examination of tissues and organs” value (SD rats; 15 days after administration) was “no abnormality was found”. For the same molecule, the weight changes (SD rats; female and male animals in the administration group) was “normal”, the clinical symptoms (SD rats; single i.v. 1000, 3000 and 9000 μg/kg, observed to day 14) was “normal” and the “prothrombin time (PT), activated partial thromboplastin time (APTT) and thrombin time (TT)” value (cynomolgus monkeys; 1st day and 15th day after administration) was “no significant change”. The “clinical symptoms, injection site, body weight, food intake, body temperature, blood pressure, ECG, urinalysis, serum biochemical and pathological examination” value (cynomolgus monkeys; single i.v. 500, 1500 and 4500 μg/kg, to day 15) was “no significant changes”, the “area of cerebral infarction” value [4] was “decreased significantly” and the neurological deficit symptoms [4] was “improved”. The “area of cerebral infarction” value [5] was “decreased” and the neurological deficit symptoms [5] was “significantly improved”.

With CC1=NN(c2ccccc2)C(=O)C1 [Edaravone] the “Scope of cerebral infarction (%)” value [1] was 35.93 ± 3.94% and the “Scope of cerebral infarction (%)” value ([1]; listed as edaravone) was “trend of reducing”.
